Laboratory results as given in US10487071B2, “Bis-triazole compounds with anti-biofilm and anti-corrosion properties” (Université de Toulon, priority 2015, dated 2019).
Like-named read-outs stand apart in the source and are kept apart here.

Key:
Paracoccus sp. (4M6) [1] = assay: Anti-adhesion test, strain 4M6; type: cell-based; details: Paracoccus; for activity at 200 µM: 15 h, read-out: % of adhesion at 200 μM, 4M6
Summary of the method: (§1)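 Stationary-phase bacteria grown in VNSS, diluted in artificial sea water and incubated about 15 h with compound at eight concentrations in triplicate, DMSO up to 2%. Adhered cells stained with SYTO 61 (1 μM). EC50 from a sigmoid fit of % inhibition against log concentration.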

[2] = tested on: Pseudoalteromonas ulvae (TC14); assay: Anti-adhesion test, strain TC14; type: cell-based; details: for activity at 200 µM / EC50: Pseudoalteromonas ulvae; for activity at 200 µM: 15 h; for EC50: read-out: EC50 (effective concentration to inhibit 50% of the adhesion)
Summary of the method: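 Stationary-phase TC14 cells grown in VNSS, diluted in artificial seawater and incubated with compound at eight concentrations in triplicate (DMSO ≤2%) for about 15 h. Non-adhered bacteria removed and adhered cells quantified by SYTO 61 (1 μM) staining. EC50 derived from sigmoid fit of % inhibition versus log concentration.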

[3] = tested on: Pseudoalteromonas lipolytica (TC8); assay: Anti-adhesion test, strain TC8; type: cell-based; details: Pseudoalteromonas lipolytica; for activity at 200 µM: 15 h, read-out: % of adhesion at 200 μM, TC8; for EC50: read-out: EC50 (effective concentration to inhibit 50% of the adhesion), TC8
Summary of the method: as §1

[4] = Gravimetry (weight loss), corrosion inhibition; details: mild steel in 1N HCl
Summary of the method: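 Mild steel coupons (2.5×2.0×0.1 cm) immersed in non-de-aerated 1N HCl without or with various inhibitor concentrations, then washed, dried and reweighed; duplicate runs. IE (%) calculated from corrosion rates without (CR^o) and with (CR) inhibitor.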

[5] = Electrochemical impedance spectroscopy, corrosion inhibition; details: 200 ppm; mild steel in 1N HCl; EIS
Experimental: The corrosion rates were determined by electrochemical impedance spectroscopy measurements and gravimetry.
The electrochemical measurements were performed on a 273 A potentiostat (EGG/PAR) coupled to a Solartron 1255 frequency response analyser. EIS measurements were carried out with a solution containing 1N HCl in the absence and presence of the tested compound at a concentration of 200 ppm under unstirred conditions, at open circuit potential with a 10 mV rms amplitude perturbation over a 20 mHz-100 kHz frequency range.
EIS data were registered and analysed using Zview software (Scribners Associates, USA).
A conventional three-electrode cell was used. It comprises a platinum foil as auxiliary electrode, a saturated calomel reference electrode (SCE) and a mild steel coupon as the working electrode with a surface area of 15.7 cm^2.
Electrochemical impedance spectroscopic (EIS) studies have been conducted to investigate corrosion inhibition processes of compounds of the invention according to the Electrochemical impedance spectroscopic test method described herein.
The high frequency loop was analyzed in terms of an equivalent circuit involving a parallel combination of Rct and the constant phase element of double layer (CPE). The inhibition efficiency, IE (%), was estimated from the measured Rct values using the following equation: […]

[6] = tested on: marine bacterial strains (TC14, TC8, 4M6, TC5 and TC11); assay: Toxicity test, summary over the strains; type: cell-based; details: comparison with reference biocides
From the text: (§2) In examples 64 and 65, the following marine bacterial strains are used.

Shewanella sp. (TC11) [7] = assay: Toxicity test, strain TC11; type: cell-based
From the text: (§3) Shewanella sp. (TC11) was isolated in June 2010 in the Military Harbor of Toulon (Mediterranean Sea, France) as described in F. Brian-Jaisson, A. Ortalo-Magné, L. Guentas-Dombrowsky, F. Armougom, Y. Blache, M. Molmeret, Microb. Ecol., 2014, 68, 94-110.

Shewanella sp. (TC11) [8] = assay: Anti-adhesion test, strain TC11; type: cell-based
Experimental: (§4) Bacterial strains were grown on Väätänen nine-salts solution (VNSS). When the stationary phase was reached, the bacterial suspension was centrifuged. Cells were then diluted in sterile artificial sea water (ASW) and introduced in microtiter plates (sterile black PS; Nunc, Fisher Scientific, France) with the tested compound (at eight concentrations in three replicates) in the presence of three controls: (i) non-specific staining control, (ii) adhesion control, and (iii) positive control. The maximum percentage of solvent (DMSO 2%) used to dilute the tested compound was also tested in triplicate as additional control. After incubation during an optimized adhesion time (moderately 15 h), non-adhered bacteria were eliminated and adhered cells were quantified after SYTO 61 (1 μM) staining. A percentage of inhibition was calculated per well. A sigmoid dose-response curve was obtained by plotting the percentage of inhibition as a function of the log of tested compound concentration, after mean (n=3) and standard deviation (SD) calculation per triplicate for each concentration. EC50 values were then calculated for each compound.
as §3

[9] = tested on: Pseudoalteromonas lipolytica (TC8); assay: microbe, parasite or virus in culture
From the text: (§5) The anti-adhesion bioassays and toxicity tests are adapted from those disclosed in M. Camps, J.-F. Briand, L. Guentas-Dombrowsky, G. Culioli, A. Bazire and Y. Blache, Mar. Poll.
(§6) After growth on VNSS, bacterial strains were harvested during the exponential phase. The microtiter plates (sterile transparent PS; Nunc, Fisher Scientific) were filled as described in the Anti-adhesion test method using VNSS instead of ASW to allow bacterial growth. The growth was followed by measuring the turbidity (OD600 nm) every hour during 6 or 7 hours. Then, resazurin (50 μM) was added in all the wells, and fluorescence was measured after 2 h to quantify the percent of bacterial viability. The same methodology used with SYTO 61 was applied to calculate a percent of viability after resazurin staining.

Paracoccus sp. (4M6) [10] = assay: microbe, parasite or virus in culture
From the text: as §5, §6

[11] = tested on: marine bacterial strains (TC14, TC8, 4M6, TC5 and TC11); assay: Anti-adhesion test, summary over the strains; type: cell-based
Experimental: as §4, §2

Polaribacter sp. (TC5) [12] = assay: Anti-adhesion test, strain TC5; type: cell-based
Experimental: as §4
(§7) Polaribacter sp. (TC5) was isolated in June 2010 in the Military Harbor of Toulon (Mediterranean Sea, France) as described in F. Brian-Jaisson, A. Ortalo-Magné, L. Guentas-Dombrowsky, F. Armougom, Y. Blache, M. Molmeret, Microb. Ecol., 2014, 68, 94-110.

[13] = tested on: Pseudoalteromonas ulvae (TC14); assay: Toxicity test, strain TC14; type: cell-based
From the text: Pseudoalteromonas ulvae (TC14) was isolated in June 2010 in the Military Harbor of Toulon (Mediterranean Sea, France) as described in F. Brian-Jaisson, A. Ortalo-Magné, L. Guentas-Dombrowsky, F. Armougom, Y. Blache, M. Molmeret, Microb. Ecol., 2014, 68, 94-110.

Polaribacter sp. (TC5) [14] = assay: Toxicity test, strain TC5; type: cell-based
From the text: as §7

For `CN(C)CCOc1ccc(CCn2cc(CNCc3cn(CCc4ccc(OCCN(C)C)c(Br)c4)nn3)nn2)cc1Br` [AS164], the activity at 200 µM (Paracoccus sp. (4M6) [1]) was 51.7 ± 4.3%, the activity at 200 µM ([2]; 200 μM) was 40.8 ± 5% and the EC50 [2] was 126 ± 21.5 µM. It also gave an activity at 200 µM [3] of 47.1 ± 1%, an EC50 [3] of 176 ± 3 µM and an IE % ([4]; 0.1 ppm) of 57.10%. It also gave an IE % ([4]; 0.3 ppm) of 90.49%, an IE % ([4]; 0.5 ppm) of 89.20% and an IE % ([4]; 2 ppm) of 92.42%. For the same compound, the IE % ([4]; 10 ppm) was 97.20%, the “inhibition efficiency from weight loss experiments” value ([4]; 25-200 ppm) was “greater than 97%” and the “inhibition efficiency (IE %) from Rct values” [5] was “around 95%”.
With `CN(C)CCCOc1ccc(CCn2cc(-c3ccc(-c4cn(CCc5ccc(OCCCN(C)C)c(Br)c5)nn4)cc3)nn2)cc1Br` [AS172, 3-(4-(2-(4-(4-(1-(4-(3-(dimethylamino)propoxy)-3-bromophenethyl)-1H-1,2,3-triazol-4-yl)phenyl)-1H-1,2,3-triazol-1-yl)ethyl)-2-bromophenoxy)-N,N-dimethylpropan-1-amine] the “toxicity by LC50 values compared with TBTO/ZINEB” value [6] was “less toxic than TBTO and ZINEB”, the activity at 200 µM (Paracoccus sp. (4M6) [1]) was 5.1 ± 1.4% and the EC50 (Paracoccus sp. (4M6) [1]; read-out: EC50 (effective concentration to inhibit 50% of the adhesion), 4M6) was 3.6 ± 3.8 µM. For the same compound, the “IS: LC50/EC50 (selectivity index), TC11” value (Shewanella sp. (TC11) [7]) was 18.9, the “LC50 (necessary concentration to kill 50% of the bacteria), TC11” value (Shewanella sp. (TC11) [7]) was 293 µM and the “inhibition of the adhesion of bacterial strain TC14” value ([2]; 200 μM) was “totally inhibit”. For the same compound, the activity at 200 µM ([2]; 200 μM) was 0.5 ± 0.8%, the EC50 [2] was 0.39 ± 0.28 µM and the activity at 200 µM (Shewanella sp. (TC11) [8]; 15 h, 200 μM, strain TC11, read-out: % of adhesion at 200 μM, TC11) was 4.6 ± 0.4%. For the same compound, the EC50 (Shewanella sp. (TC11) [8]; read-out: EC50 (effective concentration to inhibit 50% of the adhesion), strain TC11) was 15.6 ± 2.9 µM, the CC50 ([9]; Pseudoalteromonas lipolytica, read-out: LC50 (necessary concentration to kill 50% of the bacteria), TC8) was 165 µM and the “IS: LC50/EC50 (selectivity index), TC8” value ([9]; strain TC8) was 10.9. For the same compound, the CC50 (Paracoccus sp. (4M6) [10]; Paracoccus, read-out: LC50 (necessary concentration to kill 50% of the bacteria), 4M6) was 82.3 µM, the “IS: LC50/EC50 (selectivity index), 4M6” value (Paracoccus sp. (4M6) [10]; strain 4M6) was 22.9 and the activity at 200 µM [3] was 5.3 ± 2.5%. For the same compound, the EC50 [3] was 15 ± 3.3 µM, the “EC50 compared with TBTO/ZINEB” value ([11]; comparison with reference biocides) was “comparable to that of TBTO and lower than that of ZINEB” and the inhibition at 200 µM ([11]; read-out: inhibition of the adhesion of at least four marine bacterial strains) was ≥ 85%. The inhibition at 200 µM ([11]; read-out: inhibition of the adhesion of at least two marine bacterial strains) was ≥ 65%, the activity at 200 µM (Polaribacter sp. (TC5) [12]; 15 h, 200 μM) was 12.7 ± 5.7% and the EC50 (Polaribacter sp. (TC5) [12]; read-out: EC50 (effective concentration to inhibit 50% of the adhesion)) was 11 ± 0.3 µM. The “IS: LC50/EC50 (selectivity index), TC14” value [13] was 576.1, the “LC50 (necessary concentration to kill 50% of the bacteria), TC14” value [13] was 224.7 µM and the IE % ([4]; 0.1 ppm) was 40.16%. The IE % ([4]; 0.3 ppm) was 92.94%, the IE % ([4]; 0.5 ppm) was 91.11% and the IE % ([4]; 2 ppm) was 96.44%. The IE % ([4]; 10 ppm) was 98.15%, the “IS: LC50/EC50 (selectivity index), TC5” value (Polaribacter sp. (TC5) [14]) was 11.1 and the CC50 (Polaribacter sp. (TC5) [14]; read-out: LC50 (necessary concentration to kill 50% of the bacteria)) was 122 µM.
